The values that follow come from patent US20100144793A1, “NOVEL COMPOUNDS FOR THE TREATMENT OF DISEASES ASSOCIATED WITH AMYLOID OR AMYLOID-LIKE PROTEINS” (AC IMMUNE SA, priority 2006, published 2010).

The structures appear in SMILES notation. Counter-ions that a name gives are not always drawn. Like-named read-outs stand apart in the source and are kept apart here.

The target in data set [1] is T1, Aβ1-42 (Homo sapiens, UniProt P05067).
T1 construct: Aβ1-42 lyophilized powder (Bachem) was reconstituted in hexafluoroisopropanol (HFIP) to 1 mM; purchased Bachem
The data set is described as follows: Thioflavin T spectrofluorescence assay: inhibition of Aβ1-42 aggregation. It is filed as biochemical. As to the method: The objective of this example was to evaluate the capacity of the compounds of the invention to inhibit the aggregation of (Aβ)1-42 peptide and to disaggregate pre-aggregated Aβ1-42 using a thioflavin T spectrofluorescence assay.
Aβ1-42 lyophilized powder (Bachem) was reconstituted in hexafluoroisopropanol (HFIP) to 1 mM. The peptide solution was sonicated for 15 min at room temperature, agitated overnight, and aliquots were placed into non-siliconized microcentrifuge tubes. The HFIP was then evaporated under a stream of argon. The resulting peptide film was dried under vacuum for 10 min, tightly sealed and stored at −80° C. until used.
Aβ1-42 peptide film was dissolved in DMSO to reach 400 μM. Assay solution in PBS was prepared in non-siliconized incubation tubes to reach the following concentrations: 330 μM small molecule, 33 μM Aβ1-42, 10 μM thioflavin T (ThT), and 12.8% DMSO. Therefore, the final molar ratio of small molecule to Aβ1-42 was 10:1. A positive control without a small molecule was prepared to measure maximum RFU. A negative control without Aβ1-42 was prepared for each small molecule. 3-aminopyrazole trimer (Trimer) was tested in all assays to ascertain reproducibility between independent experiments. The solutions were then incubated for 24 h at 37° C., and the spectrofluorescence (relative fluorescence units; RFU) read in six replicates in black 384-well assay plates (Perkin-Elmer) on a Perkin-Elmer FluoroCount spectrofluorometer. Inhibition of aggregation is expressed as mean % inhibition±1 standard deviation (SD) according to the following equation: […]

Data set [2] addresses T2, Oregon Green labeled Aβ(1-42) (Homo sapiens, UniProt P05067).
T2 construct: DMSO-stock solutions of Oregon Green labeled Aβ(1-42) 1:1 with deionized water
The data set is described as follows: FCS-assay with 5 nM Oregon Green labeled Aβ-peptide (disaggregation of preformed aggregates). Format: biochemical. As to the method: In order to analyse the disaggregating properties of the compounds, preformed aggregates were used, which were induced straight before the FCS-measurement by diluting low concentrated (500 nM) DMSO-stock solutions of Oregon Green labeled Aβ(1-42) 1:1 with deionized water. The final concentration of Oregon Green labeled Aβ-peptide was 5 nM in 1×PBS and 3% DMSO.
To improve the reproducibility of the measurements of the concentration dependencies all samples were prepared fourfold.

Setting [3] is: 10:1 small molecule to Aβ1-42 molar ratio.
Setting [4] is: Table 4, 10:1 small molecule to Aβ1-42 molar ratio, 24 h at 37° C., mean ± SD of 2 independent experiments, read-out: % inhibition.
The mark [5] stands for this setting: read-out: Percentage of the “number of peaks” value compared to the control reaction without added ligand.
The mark [6] stands for this setting: read-out: Percentage of the “peaks × height“ value compared to the control reaction without added ligand.
The mark [7] stands for this setting: Table 3, 10:1 small molecule to Aβ1-42 molar ratio, 24 h at 37° C., mean ± SD of two independent experiments, read-out: % Inhibition.

T2 sequence (P05067 672-713 limits assumed): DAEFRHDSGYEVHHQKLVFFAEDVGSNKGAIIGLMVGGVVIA
T1 sequence (P05067 672-713 limits assumed): as above

As usually defined, the melting point is the temperature, or range, at which the solid turns liquid. Take `Cc1ccc(-c2cc(NCCNc3cc(-c4ccc(Cl)cc4)[nH]n3)n[nH]2)cc1` (as salt: hydrochloride) [Compound 1ae, N-(5-(4-Chlorophenyl)-1H-pyrazol-3-yl)-N′-(5-p-tolyl-1H-pyrazol-3-yl)ethane-1,2-diamine bishydrochloride]: the melting point was determined as 182 °C. Still for that read-out and setting: as for `Clc1ccc(-c2cc(NCCNc3cc(-c4cccs4)[nH]n3)n[nH]2)cc1` (as salt: hydrochloride) [Compound 1ah, N-(5-(4-Chlorophenyl)-1H-pyrazol-3-yl)-N′-(5-(thiophen-2-yl)-1H-pyrazol-3-yl)ethane-1,2-diamine bishydrochloride], the figure is 139 °C.

One may read the inhibition as the percentage by which the read-out fell short of the control. `Cc1cc(NC(=O)C(=O)Nc2cc(C)[nH]n2)n[nH]1` [Ampox, reference compound] had an inhibition at 330 µM in data set [1] (24 h) of 38.7 ± 5.2%. Still for that read-out and setting: as for `Cc1cc(NCCNc2cc(C)[nH]n2)n[nH]1` [Compound 1a, N^1,N^2-bis(5-Methyl-1H-pyrazol-3-yl)ethane-1,2-diamine bishydrochloride], the figure is 37.6 ± 0.7%. With `FC(F)(F)c1cccc2[nH]nc(NCCNc3n[nH]c4cccc(C(F)(F)F)c34)c12` [Compound 1ai, N,N′-bis(4-(Trifluoromethyl)-1H-indazol-3-yl)ethane-1,2-diamine bishydrochloride], the “inhibition of Aβ1-42 aggregation, in words” value (shortened to “inhibition … in words”) in data set [1] (setting [3]) was “strong inhibition of aggregation”. This compound gave an inhibition at 330 µM in data set [1] (24 h) of 50.4 ± 8.4%. Regarding `CN(C)c1ccc(-c2cc(NCCNc3cc(-c4ccc(N(C)C)cc4)[nH]n3)n[nH]2)cc1.Cl.Cl` [Compound 1aj, N^1,N^2-bis(5-(4-(Dimethylamino)phenyl)-1H-pyrazol-3-yl)ethane-1,2-diamine bishydrochloride], in data set [1] (setting [3]), the “inhibition … in words” value was “strong inhibition of aggregation”. Moreover, the inhibition at 330 µM in data set [1] (setting [4]) stood at 79.1 ± 4.8%. The remaining activity at 0.2 µM in data set [2] (200 nM compound, 5 nM labeled Aβ-peptide, read-out: Percentage of the “number of peaks” value compared to the control reaction without added ligand) came out at 57.4%; in data set [2] (200 nM compound, 5 nM labeled Aβ-peptide, read-out: Percentage of the “peaks × height“ value compared to the control reaction without added ligand) it was 61.9%. For `Fc1ccc(-c2cc(NCCNc3cc(-c4ccc(F)cc4)[nH]n3)n[nH]2)cc1` [Compound 1ak, N^1,N^2-bis(5-(4-Fluorophenyl)-1H-pyrazol-3-yl)ethane-1,2-diamine bishydrochloride], the “inhibition … in words” value in data set [1] (setting [3]) is reported as “strong inhibition of aggregation”. Further, 330 µM produced 74 ± 5.9% inhibition in data set [1] (24 h). Also, in data set [2] (setting [5]), the remaining activity at 0.1 µM was determined as 57.4% and the remaining activity at 0.2 µM is 51%. Also, in data set [2] (setting [6]), the remaining activity at 0.1 µM came out at 43.3% and the remaining activity at 0.2 µM came out at 44.8%.

With `c1ccc(-c2cc(NCCNc3cc(-c4ccccn4)[nH]n3)n[nH]2)nc1` [Compound 1al, N^1,N^2-bis(5-(Pyridin-2-yl)-1H-pyrazol-3-yl)ethane-1,2-diamine tetra-hydrochloride], the “inhibition … in words” value in data set [1] (setting [3]) is “strong inhibition of aggregation”. The compound also displayed an inhibition at 330 µM in data set [1] (24 h) of 90.1 ± 4.7%. The remaining activity at 0.2 µM came to 57.9% in data set [2] (setting [5]) and 48% in data set [2] (setting [6]). As to `Cc1ccc(-c2cc(NCC(C)(C)CNc3cc(-c4ccc(C)cc4)[nH]n3)n[nH]2)cc1` [Compound 1an, dihydrochloride], the “inhibition … in words” value in data set [1] (setting [3]) is reported as “strong inhibition of aggregation”. In data set [1] (24 h), at 330 µM the inhibition was 55.9 ± 7.4%. `Cc1ccc(-c2cc(NCc3cccc(CNc4cc(-c5ccc(C)cc5)[nH]n4)c3)n[nH]2)cc1` [Compound 1ao, N,N′-(1,3-Phenylenebis(methylene))bis(5-p-tolyl-1H-pyrazol-3-amine) dihydrochloride] returned an inhibition at 330 µM in data set [1] (24 h) of 72.9 ± 0.7%. With `Cc1ccc(-c2cc(NCc3ccc(CNc4cc(-c5ccc(C)cc5)[nH]n4)cc3)n[nH]2)cc1` [Compound 1ap, N,N′-(1,4-Phenylenebis(methylene))bis(5-p-tolyl-1H-pyrazol-3-amine) dihydrochloride], in data set [1] (setting [3]), the “inhibition … in words” value is “strong inhibition of aggregation”. 330 µM produced 66.2 ± 1.6% inhibition in data set [1] (24 h). `Cc1ccc(-c2cc(NCc3cccc(CNc4cc(-c5ccc(C)cc5)[nH]n4)n3)n[nH]2)cc1` [Compound 1aq, N,N′-(Pyridine-2,6-diylbis(methylene))bis(5-p-tolyl-1H-pyrazol-3-amine) trishydrochloride] registered an inhibition at 330 µM in data set [1] (24 h) of 82.9 ± 2.7%. For `c1cc(NCCNc2cc[nH]n2)n[nH]1` [Compound 1b, N^1N^2-bis(1H-Pyrazol-3-yl)ethane-1,2-diamine bishydrochloride], the inhibition at 330 µM in data set [1] (setting [7]) stood at 9.7 ± 0.3%.

The compound `Cc1[nH]nc(NCCNc2n[nH]c(C)c2-c2ccccc2)c1-c1ccccc1` [Compound 1c, N^1,N^2-bis(5-Methyl-4-phenyl-1H-pyrazol-3-yl)ethane-1,2-diamine bishydrochloride] returned an inhibition at 330 µM in data set [1] (24 h) of 52.7 ± 1.3%.

Consider `c1ccc(-c2cc(NCCNc3cc(-c4ccccc4)[nH]n3)n[nH]2)cc1` [Compound 1e, N^1,N^2-bis(5-Phenyl)-1H-pyrazol-3-yl)ethane-1,2-diamine bishydrochloride], for which the “inhibition … in words” value in data set [1] (setting [3]) was “strong inhibition of aggregation”. Also, in data set [1] (setting [4]), the inhibition at 330 µM turned out to be 82.5 ± 5.8%. Regarding `c1csc(-c2cc(NCCNc3cc(-c4cccs4)[nH]n3)n[nH]2)c1` [Compound 1h, N^1,N^2-bis(5-(2-Thienyl)-1H-pyrazol-3-yl)ethane-1,2-diamine bishydrochloride], in data set [1] (24 h), 330 µM produced 69.9 ± 1.4% inhibition. On the same count and under the same terms, under `c1c(NCCNc2cc(C3CC3)[nH]n2)n[nH]c1C1CC1` [Compound 1i, N^1,N^2-bis(5-Cyclopropyl-1H-pyrazol-3-yl)ethane-1,2-diamine bishydrochloride] stands 53.6 ± 27%. In data set [1] (24 h), `CC(C)(C)c1cc(NCCNc2cc(C(C)(C)C)[nH]n2)n[nH]1` [Compound 1j, N^1,N^2-bis(5-tert-Butyl-1H-pyrazol-3-yl)ethane-1,2-diamine bishydrochloride] yielded an inhibition at 330 µM of 11.5 ± 2.9%. As to `Cc1cc(NCCNc2n[nH]c(C)c2-c2ccc(Cl)cc2)n[nH]1` [Compound 1k, N,N′-(4-(4-Chlorophenyl)-5-methyl-1H-pyrazol-3-yl-N′-(5-methyl-1H-pyrazol-3-yl)ethane-1,2-diaminebishydrochloride], in data set [1] (Table 5, 10:1 small molecule to Aβ1-42 molar ratio, 24 h at 37° C., mean ± SD of two independent experiments, read-out: % inhibition), the inhibition at 330 µM came out at 40.4 ± 13%. For the compound `c1ccc(Cc2cc(NCCNc3cc(Cc4ccccc4)[nH]n3)n[nH]2)cc1` [Compound 1l, N^1,N^2-bis(5-Benzyl-1H-pyrazol-3-yl)ethane-1,2-diamine dihydrochloride], the inhibition at 330 µM in data set [1] (24 h) worked out at 57.5 ± 7.6%.

As for `c1coc(-c2cc(NCCNc3cc(-c4ccco4)[nH]n3)n[nH]2)c1` [Compound 1m, N^1,N^2-bis(5-(2-Furyl)-1H-pyrazol-3-yl)ethane-1,2-diamine bishydrochloride], the “inhibition … in words” value in data set [1] (setting [3]) is “strong inhibition of aggregation”. In addition, in data set [1] (24 h), the inhibition at 330 µM was found to be 52.9 ± 2.7%. Compound `c1ccc(Cc2c[nH]nc2NCCNc2n[nH]cc2Cc2ccccc2)cc1` [Compound 1q, N^1,N^2-bis(4-Benzyl-1H-pyrazol-3-yl)ethane-1,2-diamine dihydrochloride] returned an inhibition at 330 µM in data set [1] (24 h) of 59.2 ± 4.9%.

In the case of `c1csc(-c2c[nH]nc2NCCNc2n[nH]cc2-c2cccs2)c1` [Compound 1r, N^1,N^2-bis(4-(Thiophen-2-yl)-1H-pyrazol-3-yl)ethane-1,2-diamine bishydrochloride], the inhibition at 330 µM in data set [1] (24 h) turned out to be 49.5 ± 0.8%. As for `Clc1ccc(-c2c[nH]nc2NCCNc2n[nH]cc2-c2ccc(Cl)cc2)cc1` [Compound 1s, N^1,N^2-bis(4-(4-Chlorophenyl)-1H-pyrazol-3-yl)ethane-1,2-diamine bishydrochloride], the inhibition at 330 µM in data set [1] (24 h) is 66.6 ± 4.1%. In data set [1] (24 h), `COc1ccc(-c2c(NCCNc3n[nH]c(C)c3-c3ccc(OC)cc3)n[nH]c2C)cc1` [Compound 1t, N^1,N^2-bis(5-Methyl-4-methoxyphenyl)-1H-pyrazol-3-yl)ethane-1,2-diamine dihydrochloride] had an inhibition at 330 µM of 31.4 ± 0.5%. Compound `c1[nH]nc(NCCNc2n[nH]cc2C2CC2)c1C1CC1` [Compound 1v, N^1,N^2-bis(4-Cyclopropyl-1H-pyrazol-3-yl)ethane-1,2-diamine bishydrochloride] yielded an inhibition at 330 µM in data set [1] (24 h) of 15.3 ± 2.9%.

On to `Cc1cc(NCC(=O)Nc2cc(C)[nH]n2)n[nH]1` [Compound 1w, N-(5-Methyl-1H-pyrazol-3-yl)-2-(5-methyl-1H-pyrazol-3-ylamino)acetamide], for which the inhibition at 330 µM in data set [1] (setting [7]) is 7.3 ± 10.4%.
